Measured values taken from patent US20100068782A1, “METHOD FOR THE SURFACE TREATMENT OF SOLID SUBSTRATES” (UNIVERSIDAD DEL (PIAS) PAIS VASCO, priority 2006, published 2010).
Non-standard residues stand in square brackets, D forms with d. Residues, ends and D or L forms follow the SMILES beside them. *: point of attachment. Fmoc = O=C(OCC1c2ccccc2-c2ccccc21)*; Cha = N[C@@H](CC1CCCCC1)C(=O)O; AMC = Cc1cc(=O)oc2cc(N*)ccc12

Test system: galanin receptors
Assay: autoradiography of [35S]GTPγS binding in tissue arrays of isolated cell membranes with ligands of galanin receptors
Format: biochemical, Sprague Dawley rats
Conditions: for binding of [35S]GTPγS in the presence of ligand: some tissues (e.g., pituitary), membranes on slides treated with orthophosphoric acid, vs basal; for antagonism of the action of galnon on [35S]GTPγS binding: galnon + antagonist, tissue arrays (FIG. 7)
Description: Five male Sprague Dawley rats (250-275 g) were anesthetized and sacrificed according to the guide approved by the Ethics Committee of the Faculty of Medicine of the Basque Country University following internationally accepted guidelines (86/609/EEC). Organs and tissues which would be used in the experiment (pancreas, stomach, small intestine, spleen, heart, lung, liver, testicle, deferent duct, kidney, suprarenal glands, spinal cord and brain: frontal cortex, striatum, brain stem, pituitary, olfactory nuclei, hippocampus, hypothalamus, thalamus, colliculus and cerebellum) were subsequently extracted. These samples were stored at −70° C. until performing the experiment.
The tissue samples (1 g) were homogenized using a Teflon-glass homogenizer (10 taps at 1,500 rpm) in 30 volumes of homogenization buffer 1 mM [ethylene glycol-bis(β-aminoethyl)-N,N,N′,N′-tetraacetic acid (EGTA), 3 mM MgCl2, 1 mM dithiothreitol (DTT) and 50 mM Tris-HCl, pH 7.4] supplemented with […] sucrose. The crude homogenate was centrifuged at 3,000×g and at 4° C. for 5 minutes and the resulting supernatant was again centrifuged at 40,000×g for 10 minutes (4° C.). The pellet was washed in 20 volumes of homogenization buffer and re-centrifuged in the same conditions. Aliquots were prepared and stored at −70° C. The protein content was determined according to the Bradford method [Bradford M M., Anal Biochem 1976; 72:248-54] using bovine serum albumin (BSA) as standard.
Aliquots of 1 mg/ml of each tissue were taken and with this suspension, 1 μl microspots were made on glass supports (microscope slides) subjected to the following treatments: • a) Treated with orthophosphoric acid (PA) according to the process of Example 1; • b) Gelatinized (G); • c) Coated with gamma-aminopropyltriethoxysilane (APTS); • d) Treated with nitric acid and gelatinized (NA); • e) Treated with nitric acid and subsequently with lignin (NA+lignin); • f) Treated with nitric acid and subsequently with pectin (NA+pectin); or • g) Treated with nitric acid and subsequently with Kuzu (NA+Kuzu).
The microscope slides with the tissue sections were left drying for 15 minutes at room temperature. Subsequently the tissue sections were preincubated in assay buffer at pH 7.4 [50 mM Tris-HCl, 3 mM MgCl2, 0.2 mM EGTA, 100 mM NaCl, 3 mU/ml adenosine deaminase] for 20 minutes at room temperature to eliminate, as much as possible, the presence of endogenous neurotransmitters; after that, the sections were again preincubated in the assay buffer supplemented with guanosine diphosphate (GDP) (2 mM) and DTT (1 mM).
The microscope slides were then incubated for 2 hours at 30° C. in the previous assay buffer, to which the following substances were added depending on the different conditions of the experiment:
After this time, 2 15-minute washings were performed in 50 mM Tris-HCl buffer, pH 7.4 at 4° C. After the second washing, the sections were immersed in distilled water at 4° C. to eliminate the salts and the microscope slides were dried by means of the application of a cold airflow.
Subsequently, the microscope slides with the corresponding sections were exposed to a radiosensitive film (Kodak Biomax MR) which was developed similarly to photographic film. The labeling was quantified transforming the different gray densities into nCi/g tissue equivalent. To that end, each film was exposed together with previously calibrated commercial standards (Amersham). The quantification was performed with microscopic anatomical resolution in a computerized image analysis system, using NIH-image software.
The substances added in the different assays were the following: • (A) To study the binding of [^35S]GTPγS in the absence (basal) and in the presence of agonists, the following agonists were used: • (i) the cannabinoid agonist WIN 55212-2 [(R)-(+)-[2,3-dihydro-5-methyl-3-[(4-morpholinyl)methyl]pyrrolo[1,2,3-d,e]-1.4-benzoxazin-6-yl]-(1-naphthalenyl)methanone mono-methanesulphonate] […]

Row | Molecule | binding of [35S]GTPγS in the presence of ligand | antagonism of the action of galnon on [35S]GTPγS binding
1 | Cc1cc(=O)oc2cc(NC(=O)[C@H](CCCCN)NC(=O)[C@H](CC3CCCCC3)NC(=O)OCC3c4ccccc4-c4ccccc43)ccc12 [galnon] (Fmoc-[Cha]-Lys-{AMC}) | increases | –
2 | gal(2-11) | increases | –
3 | galanin-(1-13)-Pro-Pro-Ala-Leu-Ala-Leu-Ala-Leu-Ala amide [M40] | increases | antagonized
4 | galanin-(1-13)-bradykinin,-(2,9)amide [M35] | increases | antagonized
5 | galanin-(1-13)-substance P-5-11 amide [M15] | increases | –
